Test results reported in US10406129B2 (priority 2015, dated 2019).
“Also recorded” adds a separate entry of the source. Where two headings read alike, the source gives them in different places.

How the values were obtained:
platelets [1] = details: 4 mg/kg/day; hypercholesterolemic rat model; cited from earlier work
[2] = system: endothelial nitric oxide synthase (eNOS); details: 1 μM; human umbilical vein endothelial cells; cited from earlier work
postmenopausal women = assay: Microvascular function by peripheral arterial tonometry (Endo-PAT2000) after intake of 90 mg ResArgin or trans-res; assay type: in vivo, human; details: combined data
[3] = Plasma resveratrol concentrations after intake (HPLC), one hour study; assay type: in vivo, human; details: median (interquartile range), n=30
Description: Participants were randomized by block design to consumed trans-res or ResArgin™ in random order. Randomization was performed by the study coordinator following a predetermined plan formulated via a web-based random number generator. […] The study included two separate investigations: a one hour study and a two hour study (FIG. 6). During each study visit, which took place after an overnight fast, a baseline measurement of PAT and a blood sample were collected, followed by consumption of the assigned treatment. During the one hour study, PAT measurements and blood samples were collected thirty and […] minutes after the capsules were consumed. During the two hour study, a PAT measurement and blood sample were taken two hours after the capsules were consumed.
Briefly, plasma was treated with acidified methanol [0.5% (v/v) of acetic acid in methanol; precooled to −20° C.] containing an appropriate recovery standard. The mixture was stored at −80 C for 12 hours to allow for cryo-assisted protein precipitation, and then centrifuged for 15 min at 16,500×g. The supernatant fraction was transferred and its volume reduced to less than 50 μL by removing the solvents under vacuum with a […] SpeedVac Concentrator (Thermo Electron Corporation, Milford, Mass.). […]

platelets [4] = details: in vitro; 10-1,000 μM; dose dependent; cited from earlier work
platelets [5] = details: 10 mg daily for three months; stable coronary artery disease patients; cited from earlier work
platelets [6] = assay: Platelet function by whole blood/optical lumi-aggregometer after intake; assay type: in vivo, human
Description: Platelet reactivity during clinical screening was assessed by a PFA-100 (Siemens, Deerfield, Ill.), which measures platelet function by simulating arterial hemostasis under blood flow shear stress. During the intervention, platelet function was assessed by a whole blood/optical lumi-aggregometer (Chrono-log Model 700, Havertown, Pa.). Briefly, platelet aggregation was measured via electrical impedence (or electrical resistance), whereas lumi-aggregometry was used to examine aggregation together with adenosine triphosphate (hereafter, “ATP”) release, which is determined with firefly luciferin-luciferase system. […] One of the following agonists was used to stimulate platelets: collagen (1 μL and 5 μL), AA (10 μL) or ADP (10 μL). ATP release was measured only when platelets were activated with ADP. The aggregation was measured over a period of six minutes, following the addition of an agonist.

[7] = platelets stimulated with 10 μL arachidonic acid, one hour after intake

## Oc1ccc(C=Cc2cc(O)cc(O)c2)cc1 [Resveratrol, 3,5,4′-trihydroxystilbene]
Platelets [1]
  ADP-induced platelet aggregation: inhibited

## Oc1ccc(/C=C/c2cc(O)cc(O)c2)cc1 [trans-res, Trans-resveratrol]
[2]
  Expression of eNOS: up-regulated
Postmenopausal women; one and two hours post-consumption
  Change in FRHI compared to baseline: No differences; also recorded: no changes
Postmenopausal women; one hour after intake
  Significant improvement in RHI compared to baseline: not observed
[3]; 30 minutes after intake of 90 mg
  Plasma resveratrol concentration: 2.04 (0.82, 2.54)
[3]; 60 minutes after intake of 90 mg
  Plasma resveratrol concentration: 2.65 (1.69, 3.44)
Platelets [4]
  Platelet aggregation: significantly reduced
Platelets [5]
  Platelet aggregation: significantly reduced
Platelets [6]; lumi-aggregometry with 10 μL ADP, one-hour post consumption
  Slope, change from baseline: significant decrease
Platelets [6]; platelets stimulated with 1 μL collagen, one hour after consumption
  Slope, change from baseline: not
Platelets [6]; platelets stimulated with 1 μL collagen, one-hour post consumption
  Lag time, change from baseline: significant increase
Platelets [6]; [7]
  Area under the curve (AUC) of aggregation, change from baseline: no changes
  Maximum aggregation, change from baseline: no changes
Platelets [6]; stimulation with 5 μL collagen
  Platelet function, change from baseline: no significant changes
